Where “and” joins values, the source holds several entries; their conditions need not be identical. Equal entries are not always repeated.
molecular target: T1, Gal4-HNF4α (human HNF4α LBD) (Homo sapiens, UniProt P41235); test: Hybrid Gal4-HNF4α reporter gene assay in transiently transfected HEK293T cells; assay type: cell-based; conditions: not given
T1 construct: uniprot entry: P41235-1, residues 142-377; expressed in transfected cells; host or cells: HEK293T
T1 sequence (P41235 142-377): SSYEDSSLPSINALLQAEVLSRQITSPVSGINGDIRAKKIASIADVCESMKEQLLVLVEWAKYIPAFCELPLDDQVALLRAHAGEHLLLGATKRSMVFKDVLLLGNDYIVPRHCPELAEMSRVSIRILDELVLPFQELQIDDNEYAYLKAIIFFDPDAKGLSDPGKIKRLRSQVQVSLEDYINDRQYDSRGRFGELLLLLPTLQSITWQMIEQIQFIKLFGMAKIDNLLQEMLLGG

Structure (SMILES)	HNF4a-screening_activity_(mean_of_n=2)
Oc1cccc2cccnc12 [Prestw-Frag-2592, Oc1cccc2cccnc12]	0.6969
Nc1cc2ccccc2oc1=O [Prestw-Frag-1001, Nc1cc2ccccc2oc1=O]	0.9336 and 1.001
CCOc1ccccc1OCC1CNCCO1 (stereo not shown) [Prestw-Frag-2992, CCOc1ccccc1OCC1CNCCO1]	0.7878

same assay, conditions: Table S1, primary screening, 50 µM

Structure (SMILES)	HNF4a-screening_activity_(mean_of_n=2)
O=[N+]([O-])c1ccc(CO)cc1 [Prestw-Frag-1071, OCc1ccc(cc1)[N+]([O-])=O]	1.036 and 1.173
OC(c1ccccc1)c1ccccn1 (stereo not shown) [Prestw-Frag-2238, OC(c1ccccc1)c1ccccn1]	0.8728
Oc1ccccc1C1CCCC1 [Prestw-Frag-2706, Oc1ccccc1C1CCCC1]	0.8607
OC1CCN(c2ccccc2F)CC1 [Prestw-Frag-2803, OC1CCN(CC1)c1ccccc1F]	1.103
c1cnc2[nH]ncc2c1 [Prestw-Frag-1428, c1n[nH]c2ncccc12]	1.325
CCCC(=O)Nc1cccc(C(C)=O)c1 [Prestw-Frag-1717, CCCC(=O)Nc1cccc(c1)C(C)=O]	0.9496 and 0.8871
CN1CCN(c2cc(N)ncn2)CC1 [Prestw-Frag-3262, CN1CCN(CC1)c1cc(N)ncn1]	1.186
NC(=O)CN1C(=O)c2ccccc2C1=O [Prestw-Frag-1661, NC(=O)CN1C(=O)c2ccccc2C1=O]	1.028
O=c1[nH]nc(Cc2ccccc2)c2ccccc12 [Prestw-Frag-1561, O=c1[nH]nc(Cc2ccccc2)c2ccccc12]	1.103
O=C(NCc1cccnc1)c1ccc(O)cc1 [Prestw-Frag-1747, Oc1ccc(cc1)C(=O)NCc1cccnc1]	0.7115 and 0.9722
NC(=O)Cc1cccs1 [Prestw-Frag-1019, NC(=O)Cc1cccs1]	1.073 and 1.154
NCCOCc1ccccc1 [Prestw-Frag-3749, NCCOCc1ccccc1]	0.8708
O=C1Nc2ccccc2Nc2ccccc21 [Prestw-Frag-1904, O=C1Nc2ccccc2Nc2ccccc12]	1.665 and 0.9141
COC(=O)c1scc(C)c1N [Prestw-Frag-1111, COC(=O)c1scc(C)c1N]	1.183
c1ccc(C2CNCCO2)cc1 (stereo not shown) [Prestw-Frag-2958, C1COC(CN1)c1ccccc1]	1.039
CCN(CCCCO)C(C)Cc1ccc(OC)cc1 (stereo not shown) [Prestw-Frag-2440, CCN(CCCCO)C(C)Cc1ccc(OC)cc1]	1.361
CCC(=O)Nc1ccc(CC(=O)O)cc1 [Prestw-Frag-2362, CCC(=O)Nc1ccc(CC(O)=O)cc1]	0.9958
O=C(O)CCCc1ccc(-c2ccccc2)cc1 [Prestw-Frag-1767, OC(=O)CCCc1ccc(cc1)-c1ccccc1]	0.6264
O=C(O)C1(c2ccccc2)CCCC1 [Prestw-Frag-2049, OC(=O)C1(CCCC1)c1ccccc1]	0.9983
CN(C)C(=O)Oc1ccccc1 [Prestw-Frag-1540, CN(C)C(=O)Oc1ccccc1]	1.182
c1ccc(C2CCNCC2)cc1 [Prestw-Frag-2537, C1CC(CCN1)c1ccccc1]	0.9586

Structure (SMILES)	HNF4a-screening_activity_(mean_of_n=2)
COC(=O)c1c[nH]c2ccccc12 [Prestw-Frag-2799, COC(=O)c1c[nH]c2ccccc12]	0.9379
CC(=O)NCCc1c[nH]c2ccccc12 [Prestw-Frag-1478, CC(=O)NCCc1c[nH]c2ccccc12]	1.089
NCC(CC(=O)O)c1ccccc1 (stereo not shown) [Prestw-Frag-1125, NCC(CC(O)=O)c1ccccc1]	0.6886
COc1ccc2[nH]cnc2c1 [Prestw-Frag-3678, COc1ccc2[nH]cnc2c1]	0.9895
Cc1ccccc1Nc1ncccc1C(=O)O [Prestw-Frag-2806, Cc1ccccc1Nc1ncccc1C(O)=O]	1.238
CNC(=O)c1cc(Cl)c(N)cc1OC [Prestw-Frag-3754, CNC(=O)c1cc(Cl)c(N)cc1OC]	1.064
N=C(N)CSCc1ccccc1 [Prestw-Frag-2348, NC(=N)CSCc1ccccc1]	1.134
CN1CCN(c2ccccc2)CC1 [Prestw-Frag-1946, CN1CCN(CC1)c1ccccc1]	1.048
c1ccc2c(c1)NCCO2 [Prestw-Frag-3732, C1COc2ccccc2N1]	1.144
Cc1ccccc1NC(=O)C(C)N (stereo not shown) [Prestw-Frag-1856, CC(N)C(=O)Nc1ccccc1C]	1.062 and 1.114
CN1C2CCC1CC(O)C2 (stereo not shown) [Prestw-Frag-0608, CN1C2CCC1CC(O)C2]	1.089 and 1.102
O=c1[nH]ncc2ccccc12 [Prestw-Frag-1560, O=c1[nH]ncc2ccccc12]	1.119
OC(c1ccc(Cl)cc1)c1ccccn1 (stereo not shown) [Prestw-Frag-1346, OC(c1ccc(Cl)cc1)c1ccccn1]	0.8912
NC(=O)Cc1ccccc1 [Prestw-Frag-2580, NC(=O)Cc1ccccc1]	0.9823
COc1cc2c(cc1OC)CNCC2 [Prestw-Frag-1276, COc1cc2CCNCc2cc1OC]	1.117
COc1cc2c(cc1OC)C(C)N(C)CC2 (stereo not shown) [Prestw-Frag-1273, COc1cc2CCN(C)C(C)c2cc1OC]	1.056 and 0.9179
CC(=O)C1CCNCC1 [Prestw-Frag-3756, CC(=O)C1CCNCC1]	0.9377
Fc1ccc(C(c2ccc(F)cc2)N2CCNCC2)cc1 [Prestw-Frag-1323, Fc1ccc(cc1)C(N1CCNCC1)c1ccc(F)cc1]	1.017 and 1.002
Nc1ccn([C@H]2C[C@H](O)[C@@H](CO)O2)c(=O)n1 [Prestw-Frag-3264, Nc1ccn([C@H]2C[C@H](O)[C@@H](CO)O2)c(=O)n1]	1.086
Nc1nncs1 [Prestw-Frag-1009, Nc1nncs1]	1.011
O=C1c2ccc(Cl)cc2CCc2cccnc21 [Prestw-Frag-3073, Clc1ccc2c(CCc3cccnc3C2=O)c1]	0.9858

Structure (SMILES)	HNF4a-screening_activity_(mean_of_n=2)
Cc1ccc(C#N)c(=O)[nH]1 [Prestw-Frag-2669, Cc1ccc(C#N)c(=O)[nH]1]	0.9816
O=C(O)COc1ccccc1 [Prestw-Frag-2577, OC(=O)COc1ccccc1]	1.064
c1ccc2cnccc2c1 [Prestw-Frag-2493, c1ccc2cnccc2c1]	1.292
NC(=O)COc1ccc(Cl)cc1 [Prestw-Frag-1833, NC(=O)COc1ccc(Cl)cc1]	1.468 and 0.8655
Cc1cc(C(C)(C)C)cc(C)c1CC1=NCCN1 [Prestw-Frag-1575, Cc1cc(cc(C)c1CC1=NCCN1)C(C)(C)C]	1.056
O=C1CCc2ccc(O)cc2N1 [Prestw-Frag-2854, Oc1ccc2CCC(=O)Nc2c1]	1.013
O=C(O)CC[C@H](NC(=O)c1ccccc1)C(=O)O [Prestw-Frag-1499, OC(=O)CC[C@H](NC(=O)c1ccccc1)C(O)=O]	1.11
CC(C)(CN)c1ccccc1 [Prestw-Frag-3733, CC(C)(CN)c1ccccc1]	1.132
c1ccc(C(c2ccccc2)n2ccnc2)cc1 [Prestw-Frag-2868, c1cn(cn1)C(c1ccccc1)c1ccccc1]	0.7887
OCCCN1CCN(c2ccccc2)CC1 [Prestw-Frag-1944, OCCCN1CCN(CC1)c1ccccc1]	1.133
Cn1nnnc1S [Prestw-Frag-1032, Cn1nnnc1S]	1.09
Oc1nsnc1N1CCOCC1 [Prestw-Frag-2562, Oc1nsnc1N1CCOCC1]	1.981
OCc1ccncc1 [Prestw-Frag-2303, OCc1ccncc1]	0.9833
Cc1cnc(C(=O)O)cn1 [Prestw-Frag-1494, Cc1cnc(cn1)C(O)=O]	0.7971 and 1.166
CC(=O)c1ccc(O)cc1O [Prestw-Frag-2506, CC(=O)c1ccc(O)cc1O]	0.9153
CN(C)CCCC(=O)c1ccc(F)cc1 [Prestw-Frag-3693, CN(C)CCCC(=O)c1ccc(F)cc1]	1.093
Oc1ccc2cc[nH]c2c1 [Prestw-Frag-1374, Oc1ccc2cc[nH]c2c1]	1.128
Oc1ccc(Cc2ccccc2)cc1 [Prestw-Frag-3455, Oc1ccc(Cc2ccccc2)cc1]	0.7887
OCCn1ccnc1 [Prestw-Frag-1303, OCCn1ccnc1]	0.8061 and 1.219

Reference: article PMC7660650, “Chemical Starting Matter for HNF4α Ligand Discovery and Chemogenomics” (International Journal of Molecular Sciences, 2020)
